According to patent US20260274892A1, “MACROCYCLIC BROAD SPECTRUM ANTIBIOTICS” (RQx Pharmaceuticals, Inc., priority 2017, published 2026):

Columns and labels:
[1] = system: Methicillin Resistant Staphylococcus aureus strain USA 200; assay: Minimum inhibitory concentration (MIC), CLSI broth micro-dilution, S. aureus; assay type: cell-based; conditions: Staphylococcus aureus, MRSA / USA200; Table 6; MRSA USA 200; cation adjusted Mueller Hinton Broth + 0.002% Tween-80; 35° C., 22 hours
Procedure, shortened: (§1)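 Antibacterial potency is measured as MIC by the CLSI broth dilution method. Bacteria at OD600 0.0005 in Tween-80-supplemented cation-adjusted Mueller Hinton broth face ten twofold compound dilutions for 22 h at 35° C.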

[2] = system: Escherichia coli ATCC 25922; assay: Minimum inhibitory concentration (MIC), CLSI broth micro-dilution, E. coli; assay type: cell-based; conditions: Escherichia coli, ATCC25922, 22 h, Table 6, cation adjusted Mueller Hinton Broth + 0.002% Tween-80, 35° C.
Procedure, shortened: as §1

Row | MIC [1] [µM] | MIC [2] [µM] | Compound
1 | 1 | 8.2 | Cc1nc(C#Cc2ccc(C(C)(C)C)cc2)nc(C)c1C(=O)N[C@@H](CCN)C(=O)N(C)[C@@H]1C(=O)N[C@@H](C)C(=O)N[C@H](C(=O)NCC#N)Cc2ccc(OCCN)c(c2)-c2cc1ccc2OCCN (racemic) [Compound 311, rac-(8S,11S,14S)-3,18-bis(2-aminoethoxy)-N-(cyanomethyl)-11-methyl-14-[methyl-[rac-(2S)-4-amino-2-[[2-[2-(4-tert-butylphenyl)ethynyl]-4,6-dimethyl-pyrimidine-5-carbonyl]amino]butanoyl]amino]-10,13-dioxo-9,12-diazatricyclo[13.3.1.12,6]icosa-1(18),2(20),3,5,15(19),16-hexaene-8-carboxamide]
2 | 0.016 | 0.13 | Cc1nc(-c2ccc3c(c2)CCC32CC2)nc(C)c1C(=O)N[C@@H](CCN)C(=O)N(C)[C@@H]1C(=O)N[C@@H](C)C(=O)N[C@H](C(=O)NCC#N)Cc2ccc(OCCN)c(c2)-c2cc1ccc2OCCN (racemic) [Compound 284, rac-(8S,11S,14S)-3,18-bis(2-aminoethoxy)-N-(cyanomethyl)-11-methyl-14-[methyl-[rac-(2S)-4-amino-2-[(4,6-dimethyl-2-spiro[cyclopropane-1,1′-indane]-5′-yl-pyrimidine-5-carbonyl)amino]butanoyl]amino]-10,13-dioxo-9,12-diazatricyclo[13.3.1.12,6]icosa-1(18),2(20),3,5,15(19),16-hexaene-8-carboxamide]
3 | 0.016 | 2 | Cc1nc(-c2ccc(C(C)(C)C)cc2)nc(C)c1C(=O)N[C@@H](CC(C)(C)N)C(=O)N(C)[C@@H]1C(=O)N[C@@H](C)C(=O)N[C@H](C(=O)NCC#N)Cc2ccc(OCCN)c(c2)-c2cc1ccc2OCCN [Compound 492, (8S,11S,14S)-14-[[(2S)-4-amino-2-[[2-(4-tert-butylphenyl)-4,6-dimethyl-pyrimidine-5-carbonyl]amino]-4-methyl-pentanoyl]-methyl-amino]-3,18-bis(2-aminoethoxy)-N-(cyanomethyl)-11-methyl-10,13-dioxo-9,12-diazatricyclo[13.3.1.12,6]icosa-1(18),2(20),3,5,15(19),16-hexaene-8-carboxamide]
4 | 0.047 | 0.5 | Cc1nc(-c2ccc(OC3CCCCC3)cc2)nc(C)c1C(=O)N[C@@H](CCO)C(=O)N(C)[C@@H]1C(=O)N[C@@H](C)C(=O)N[C@H](C(=O)NCC#N)Cc2ccc(OCCN)c(c2)-c2cc1ccc2OCCN [Compound 509, (8S,11S,14S)-3,18-bis(2-aminoethoxy)-N-(cyanomethyl)-14-[[(2S)-2-[[2-[4-(cyclohexoxy)phenyl]-4,6-dimethyl-pyrimidine-5-carbonyl]amino]-4-hydroxy-butanoyl]-methyl-amino]-11-methyl-10,13-dioxo-9,12-diazatricyclo[13.3.1.12,6]icosa-1(18),2(20),3,5,15(19),16-hexaene-8-carboxamide]
5 | 0.012 | 0.066 | Cc1nc(-c2ccc(C3CCCC3)cc2)ncc1C(=O)N[C@@H](CCN)C(=O)N(C)[C@@H]1C(=O)N[C@@H](C)C(=O)N[C@H](C(=O)NCC#N)Cc2ccc(OCCN)c(c2)-c2cc1ccc2OCCN (racemic) [Compound 230, rac-(8S,11S,14S)-3,18-bis(2-aminoethoxy)-N-(cyanomethyl)-11-methyl-14-[methyl-[rac-(2S)-4-amino-2-[[2-(4-cyclopentylphenyl)-4-methyl-pyrimidine-5-carbonyl]amino]butanoyl]amino]-10,13-dioxo-9,12-diazatricyclo[13.3.1.12,6]icosa-1(18),2(20),3,5,15(19),16-hexaene-8-carboxamide]
6 | 0.016 | 0.13 | Cc1nc(-c2ccc(C3CCCCC3)cc2)ncc1C(=O)N[C@@H](CCN)C(=O)N(C)[C@@H]1C(=O)N[C@@H](C)C(=O)N[C@H](C(=O)NCC#N)Cc2ccc(OCCN)c(c2)-c2cc1ccc2OCCN (racemic) [Compound 233, rac-(8S,11S,14S)-3,18-bis(2-aminoethoxy)-N-(cyanomethyl)-11-methyl-14-[methyl-[rac-(2S)-4-amino-2-[[2-(4-cyclohexylphenyl)-4-methyl-pyrimidine-5-carbonyl]amino]butanoyl]amino]-10,13-dioxo-9,12-diazatricyclo[13.3.1.12,6]icosa-1(18),2(20),3,5,15(19),16-hexaene-8-carboxamide]
7 | 0.016 | 0.19 | Cc1nc(-c2ccc(N3CCC(C(C)(C)C)CC3)cc2)nc(C)c1C(=O)N[C@@H](CCN)C(=O)N(C)[C@@H]1C(=O)N[C@@H](C)C(=O)N[C@H](C(=O)NCC#N)Cc2ccc(OCCN)c(c2)-c2cc1ccc2OCCN (racemic) [Compound 320, rac-(8S,11S,14S)-3,18-bis(2-aminoethoxy)-N-(cyanomethyl)-11-methyl-14-[methyl-[rac-(2S)-4-amino-2-[[2-[4-(4-tert-butyl-1-piperidyl)phenyl]-4,6-dimethyl-pyrimidine-5-carbonyl]amino]butanoyl]amino]-10,13-dioxo-9,12-diazatricyclo[13.3.1.12,6]icosa-1(18),2(20),3,5,15(19),16-hexaene-8-carboxamide]

The next lines start with the compound.

Row | Compound | MIC [1] [µM] | MIC [2] [µM]
8 | Cc1nc(-c2ccc(OC3CCCCC3)cc2)nc(C)c1C(=O)N[C@@H](CCCNS(N)(=O)=O)C(=O)N(C)[C@@H]1C(=O)N[C@@H](C)C(=O)N[C@H](C(=O)NCC#N)Cc2ccc(OCCN)c(c2)-c2cc1ccc2OCCN [Compound 503, (8S,11S,14S)-3,18-bis(2-aminoethoxy)-N-(cyanomethyl)-14-[[(2S)-2-[[2-[4-(cyclohexoxy)phenyl]-4,6-dimethyl-pyrimidine-5-carbonyl]amino]-5-(sulfamoylamino)pentanoyl]-methyl-amino]-11-methyl-10,13-dioxo-9,12-diazatricyclo[13.3.1.12,6]icosa-1(18),2(20),3,5,15(19),16-hexaene-8-carboxamide] | 0.047 | 1
9 | CCCCCCc1ccc(C(=O)N[C@@H](CCN)C(=O)N(CC)[C@@H]2C(=O)N[C@@H](C)C(=O)N[C@H](C(=O)NCC#N)Cc3ccc(O)c(c3)-c3cc2ccc3O)c(C)c1 (racemic) [Compound 473, rac-(8S,11S,14S)-N-(cyanomethyl)-14-[ethyl-[rac-(2S)-4-amino-2-[(4-hexyl-2-methyl-benzoyl)amino]butanoyl]amino]-3,18-dihydroxy-11-methyl-10,13-dioxo-9,12-diazatricyclo[13.3.1.12,6]icosa-1(18),2(20),3,5,15(19),16-hexaene-8-carboxamide] | 0.31 | 4.9
10 | C[C@@H]1NC(=O)[C@@H](N(C)C(=O)[C@H](CCN)NC(=O)c2ccc(Oc3ccc(C(C)(C)C)cc3)cc2Cl)c2ccc(OCCN)c(c2)-c2cc(ccc2OCCN)C[C@@H](C(=O)NCC#N)NC1=O (racemic) [Compound 376, rac-(8S,11S,14S)-3,18-bis(2-aminoethoxy)-N-(cyanomethyl)-11-methyl-14-[methyl-[rac-(2S)-4-amino-2-[[4-(4-tert-butylphenoxy)-2-chloro-benzoyl]amino]butanoyl]amino]-10,13-dioxo-9,12-diazatricyclo[13.3.1.12,6]icosa-1(18),2(20),3,5,15(19),16-hexaene-8-carboxamide] | 0.016 | 0.25
11 | Cc1nc(-c2ccc(C3C4CC5CC(C4)CC3C5)cc2)ncc1C(=O)N[C@@H](CCN)C(=O)N(C)[C@@H]1C(=O)N[C@@H](C)C(=O)N[C@H](C(=O)NCC#N)Cc2ccc(OCCN)c(c2)-c2cc1ccc2OCCN (mixture of isomers) [Compound 239, rac-(8S,11S,14S)-3,18-bis(2-aminoethoxy)-N-(cyanomethyl)-11-methyl-14-[methyl-[rac-(2S)-2-[[2-[4-(2-adamantyl)phenyl]-4-methyl-pyrimidine-5-carbonyl]amino]-4-amino-butanoyl]amino]-10,13-dioxo-9,12-diazatricyclo[13.3.1.12,6]icosa-1(18),2(20),3,5,15(19),16-hexaene-8-carboxamide] | 0.015 | 0.12
12 | CCCc1ccc(-c2ccc(C(=O)N[C@@H](CCN)C(=O)N(C)[C@@H]3C(=O)N[C@@H](C)C(=O)N[C@H](C(=O)NCC#N)Cc4ccc(OCCN)c(c4)-c4cc3ccc4OCCN)c(C)n2)cc1 (racemic) [Compound 208, rac-(8S,11S,14S)-3,18-bis(2-aminoethoxy)-N-(cyanomethyl)-11-methyl-14-[methyl-[rac-(2S)-4-amino-2-[[2-methyl-6-(4-propylphenyl)pyridine-3-carbonyl]amino]butanoyl]amino]-10,13-dioxo-9,12-diazatricyclo[13.3.1.12,6]icosa-1(18),2(20),3,5,15(19),16-hexaene-8-carboxamide] | 0.017 | 0.14
13 | C[C@@H]1NC(=O)[C@@H](N(C)C(=O)[C@H](CCN)NC(=O)c2cnn(-c3ccc(C(C)(C)C)cc3)c(=O)c2)c2ccc(OCCN)c(c2)-c2cc(ccc2OCCN)C[C@@H](C(=O)NCC#N)NC1=O (racemic) [Compound 384, rac-(8S,11S,14S)-3,18-bis(2-aminoethoxy)-N-(cyanomethyl)-11-methyl-14-[methyl-[rac-(2S)-4-amino-2-[[1-(4-tert-butylphenyl)-6-oxo-pyridazine-4-carbonyl]amino]butanoyl]amino]-10,13-dioxo-9,12-diazatricyclo[13.3.1.12,6]icosa-1(18),2(20),3,5,15(19),16-hexaene-8-carboxamide] | 0.033 | 0.4
